Assay results published in patent US20220235064A1 (WELLMARKER BIO CO., LTD., priority 2019, published 2022).
Where a name gives a salt, the structure may show the parent alone.

Experiments:
[1] = test system: cancer cell line KM12C, in which RON is activated; test: Cell-killing efficacy in RON-activated cancer cell line (trypan blue); assay type: cell-based; conditions: Homo sapiens, 48 hours, trypan blue, n=2, read-out: Cell death (%) Cancer cell line KM12C
Method in brief: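 KM12C cells seeded 1×10^5 per 60 mm^2 dish in MEM + 10% FBS, then exposed 24 h later to compound at 1 μM or 5 μM for 48 h.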

[2] = test system: cancer cell line KM12C, in which RON is activated; test: Cell growth inhibitory ability in RON-activated cancer cell line (MTS); assay type: cell-based; conditions: Homo sapiens, 48 hours, absorbance 490 nm
Method in brief: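 KM12C cells (RON-activated, MEM with FBS) exposed to compound […] for 48 h. MTS added 24 h after treatment ended, incubated 4 h at 37° C, absorbance read at 490 nm. IC50 derived from absorbance.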

RON tyrosine kinase = target: T1, RON tyrosine kinase (Homo sapiens, UniProt Q04912); test: Enzyme inhibitory activity against RON tyrosine kinase (TR-FRET); assay type: biochemical; conditions: RON (Carna Bioscience)
T1 construct: purchased Carna Bioscience
Method in brief: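 Recombinant RON was preincubated with compound for 15 min at RT in 50 mM HEPES pH 7.5, 10 mM MgCl2, 1 mM EGTA, 2 mM DTT, 0.01% Tween-20. Enzyme (0.4 nM), ATP (60 μM) and tyrosine peptide (400 nM) were prepared at 2×, 4× and 4× final. After 60 min at RT, EDTA/Eu-anti-phosphotyrosine stop; IC50 from 665 nm TR-FRET emission.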

T1 sequence (Q04912 25-1400): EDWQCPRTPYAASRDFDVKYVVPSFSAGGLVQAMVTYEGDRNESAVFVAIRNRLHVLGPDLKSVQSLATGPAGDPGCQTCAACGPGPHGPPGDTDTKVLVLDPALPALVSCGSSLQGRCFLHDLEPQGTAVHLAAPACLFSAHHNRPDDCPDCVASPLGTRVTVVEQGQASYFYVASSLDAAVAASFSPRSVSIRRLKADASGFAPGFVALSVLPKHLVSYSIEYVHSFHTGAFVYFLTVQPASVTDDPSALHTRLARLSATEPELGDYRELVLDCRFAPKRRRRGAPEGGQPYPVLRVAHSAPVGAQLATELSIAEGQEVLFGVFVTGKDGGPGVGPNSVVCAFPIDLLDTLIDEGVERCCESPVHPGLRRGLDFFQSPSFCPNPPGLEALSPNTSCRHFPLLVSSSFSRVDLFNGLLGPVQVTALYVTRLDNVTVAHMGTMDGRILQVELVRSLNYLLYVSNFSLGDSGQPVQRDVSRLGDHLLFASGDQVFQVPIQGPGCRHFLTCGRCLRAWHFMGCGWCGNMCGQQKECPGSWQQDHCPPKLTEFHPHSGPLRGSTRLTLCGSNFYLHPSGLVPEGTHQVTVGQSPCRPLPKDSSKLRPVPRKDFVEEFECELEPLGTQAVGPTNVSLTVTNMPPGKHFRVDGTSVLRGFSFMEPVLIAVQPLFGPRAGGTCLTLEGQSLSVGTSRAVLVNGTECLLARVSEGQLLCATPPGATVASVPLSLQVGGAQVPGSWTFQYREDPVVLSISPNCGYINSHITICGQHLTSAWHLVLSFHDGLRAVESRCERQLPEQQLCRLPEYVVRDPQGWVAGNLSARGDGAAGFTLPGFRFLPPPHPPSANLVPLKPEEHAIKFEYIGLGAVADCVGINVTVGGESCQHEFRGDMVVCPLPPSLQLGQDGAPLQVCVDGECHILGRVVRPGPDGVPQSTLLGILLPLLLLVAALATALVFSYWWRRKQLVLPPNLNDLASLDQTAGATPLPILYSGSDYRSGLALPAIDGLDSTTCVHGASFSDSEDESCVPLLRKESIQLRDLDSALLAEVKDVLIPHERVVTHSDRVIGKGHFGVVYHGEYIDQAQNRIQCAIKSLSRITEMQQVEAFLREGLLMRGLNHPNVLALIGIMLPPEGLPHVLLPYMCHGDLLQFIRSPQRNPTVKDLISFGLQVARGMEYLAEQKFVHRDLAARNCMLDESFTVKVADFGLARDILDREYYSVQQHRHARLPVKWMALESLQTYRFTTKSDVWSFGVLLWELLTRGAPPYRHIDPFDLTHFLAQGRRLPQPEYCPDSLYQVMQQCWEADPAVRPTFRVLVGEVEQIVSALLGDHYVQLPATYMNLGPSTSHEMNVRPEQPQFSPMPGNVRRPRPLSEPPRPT

Row | SMILES | IC50 [2] [nM] | IC50 (RON tyrosine kinase) [nM] | cytotoxicity at 1 µM [1] [%] | cytotoxicity at 5 µM [1] [%]
1 | O=C(Nc1ccc(Oc2ccnc3cc(-c4ccccn4)sc23)c(F)c1)c1c2c(cn(-c3ccc(F)cc3)c1=O)CCO2 [Example 3, N-(3-Fluoro-4-((2-(pyridin-2-yl)thieno[3,2-b]pyridin-7-yl)oxy)phenyl)-5-(4-fluorophenyl)-6-oxo-2,3,5,6-tetrahydrofuro[3,2-c]pyridine-7-carboxamide] | 3 | 2.39 | 24.6 | 34
2 | O=C(Nc1ccc(Oc2ccnc3cc(-c4ccc(CN5CCOCC5)cn4)sc23)c(F)c1)c1c2c(cn(-c3ccc(F)cc3)c1=O)CCO2 [Example 5, N-(3-Fluoro-4-((2-(5-(morpholinomethyl)pyridin-2-yl)thieno[3,2-b]pyridin-7-yl)oxy)phenyl)-5-(4-fluorophenyl)-6-oxo-2,3,5,6-tetrahydrofuro[3,2-c]pyridine-7-carboxamide hydrochloride] | 4 | 5.87 | 21.2 | 25.9
3 | O=C(Nc1ccc(Oc2ccnc3cc(-c4ccc(CN5CCOCC5)cn4)sc23)c(F)c1)c1c2c(cn(-c3ccccc3)c1=O)CCO2 [Example 6, N-(3-Fluoro-4-((2-(5-(morpholinomethyl)pyridin-2-yl)thieno[3,2-b]pyridin-7-yl)oxy)phenyl)-6-oxo-5-phenyl-2,3,5,6-tetrahydrofuro[3,2-c]pyridine-7-carboxamide hydrochloride] | 2 | 1.43 | 29.3 | 34.3
4 | COc1cc2nccc(Oc3ccc(NC(=O)c4c5c(cn(-c6ccccc6)c4=O)CCO5)cc3F)c2cc1OC [Example 41, N-(4-((6,7-Dimethoxyquinolin-4-yl)oxy)-3-fluorophenyl)-6-oxo-5-phenyl-2,3,5,6-tetrahydrofuro[3,2-c]pyridine-7-carboxamide] | 2 | 2.86 | 16 | 21.4
5 | COc1cc2ncnc(Oc3ccc(NC(=O)c4c5c(cn(-c6ccc(F)cc6)c4=O)CCO5)cc3F)c2cc1OC [Example 46, N-(4-((6,7-Dimethoxyquinazolin-4-yl)oxy)-3-fluorophenyl)-5-(4-fluorophenyl)-6-oxo-2,3,5,6-tetrahydrofuro[3,2-c]pyridine-7-carboxamide] | 6 | 2.39 | 23.7 | 27.4
6 | COc1cc2nccc(Oc3ccc(NC(=O)c4c5c(cn(-c6ccc(F)cc6)c4=O)CCO5)cc3F)c2cc1C(N)=O [Example 47, N-(4-((6-Carbamoyl-7-methoxyquinolin-4-yl)oxy)-3-fluorophenyl)-5-(4-fluorophenyl)-6-oxo-2,3,5,6-tetrahydrofuro[3,2-c]pyridine-7-carboxamide] | 2 | 0.47 | 18 | 30.9
7 | CNC(=O)c1cc2c(Oc3ccc(NC(=O)c4c5c(cn(-c6ccc(F)cc6)c4=O)CCO5)cc3F)ccnc2cc1OC [Example 48, N-(3-Fluoro-4-((7-methoxy-6-(methylcarbamoyl)quinolin-4-yl)oxy)phenyl)-5-(4-fluorophenyl)-6-oxo-2,3,5,6-tetrahydrofuro[3,2-c]pyridine-7-carboxamide] | 1 | 0.85 | 18.9 | 15.5
8 | COc1cc2nccc(Oc3ccc(NC(=O)c4c5c(cn(-c6ccc(F)cc6)c4=O)CCO5)cc3F)c2cc1C(=O)NCCN1CCOCC1 [Example 50, N-(3-Fluoro-4-((7-methoxy-6-((2-morpholinoethyl)carbamoyl)quinolin-4-yl)oxy)phenyl)-5-(4-fluorophenyl)-6-oxo-2,3,5,6-tetrahydrofuro[3,2-c]pyridine-7-carboxamide] | 2 | 1.18 | 19.4 | 32.3
9 | COc1cc2c(Oc3ccc(NC(=O)c4c5c(cn(-c6ccc(F)cc6)c4=O)CCO5)cc3F)ccnc2cc1OCCN1CCOCC1 [Example 78, N-(3-Fluoro-4-((6-methoxy-7-(2-morpholinoethoxy)quinolin-4-yl)oxy)phenyl)-5-(4-fluorophenyl)-6-oxo-2,3,5,6-tetrahydrofuro[3,2-c]pyridine-7-carboxamide] | 2 | 2.63 | 23.5 | 23.9
10 | COc1cc2c(Oc3ccc(NC(=O)c4c5c(cn(-c6ccc(F)cc6)c4=O)CCO5)cc3F)ccnc2cc1OCCCN1CCN(C)CC1 [Example 80, N-(3-Fluoro-4-((6-methoxy-7-(3-(4-methylpiperazin-1-yl)propoxy)quinolin-4-yl)oxy)phenyl)-5-(4-fluorophenyl)-6-oxo-2,3,5,6-tetrahydrofuro[3,2-c]pyridine-7-carboxamide] | 3 | 1.3 | 19.5 | 19.9
11 | CN1CCN(CCCOc2ccc3c(Oc4ccc(NC(=O)c5c6c(cn(-c7ccc(F)cc7)c5=O)CCO6)cc4F)ccnc3c2)CC1 [Example 160, N-(3-Fluoro-4-((7-(3-(4-methylpiperazin-1-yl)propoxy)quinolin-4-yl)oxy)phenyl)-5-(4-fluorophenyl)-6-oxo-2,3,5,6-tetrahydrofuro[3,2-c]pyridine-7-carboxamide] | 6 | 1.01 | 12.7 | 19.4
12 | O=C(Nc1ccc(Oc2ccnc3cc(OCCCN4CCCCC4)ccc23)c(F)c1)c1c2c(cn(-c3ccc(F)cc3)c1=O)CCO2 [Example 161] | 7 | 0.61 | 23.4 | 22
13 | CNC(=O)c1cc2c(Oc3ccc(NC(=O)c4c5c(cn(-c6ccc(F)cc6)c4=O)CCO5)cc3F)ccnc2cc1OCCCN1CCOCC1 [Example 164, N-(3-Fluoro-4-((6-(methylcarbamoyl)-7-(3-morpholinopropoxy)quinolin-4-yl)oxy)phenyl)-5-(4-fluorophenyl)-6-oxo-2,3,5,6-tetrahydrofuro[3,2-c]pyridine-7-carboxamide] | 1 | 1.46 | 19.4 | 29.7
14 | O=C(Nc1ccc(Oc2ccnc3cc(OCCN4CCOCC4)c(Cl)cc23)c(F)c1)c1c2c(cn(-c3ccc(F)cc3)c1=O)CCO2 [Example 171, N-(4-((6-Chloro-7-(2-morpholinoethoxy)quinolin-4-yl)oxy)-3-fluorophenyl)-5-(4-fluorophenyl)-6-oxo-2,3,5,6-tetrahydrofuro[3,2-c]pyridine-7-carboxamide] | 8 | 7.13 | – | –

Second part, led by results:

Row | IC50 [2] [nM] | IC50 (RON tyrosine kinase) [nM] | SMILES | cytotoxicity at 1 µM [1] [%] | cytotoxicity at 5 µM [1] [%]
15 | 3 | 0.58 | N#Cc1cc2c(Oc3ccc(NC(=O)c4c5c(cn(-c6ccc(F)cc6)c4=O)CCO5)cc3F)ccnc2cc1OCCN1CCOCC1 [Example 173, N-(4-((6-Cyano-7-(2-morpholinoethoxy)quinolin-4-yl)oxy)-3-fluorophenyl)-5-(4-fluorophenyl)-6-oxo-2,3,5,6-tetrahydrofuro[3,2-c]pyridine-7-carboxamide] | – | –
16 | 4 | 1.61 | N#Cc1cc2c(Oc3ccc(NC(=O)c4c5c(cn(-c6ccc(F)cc6)c4=O)CCO5)cc3F)ccnc2cc1OCCCN1CCOCC1 [Example 174, N-(4-((6-Cyano-7-(3-morpholinopropoxy)quinolin-4-yl)oxy)-3-fluorophenyl)-5-(4-fluorophenyl)-6-oxo-2,3,5,6-tetrahydrofuro[3,2-c]pyridine-7-carboxamide] | – | –
17 | 2 | 1.24 | COc1cc2nccc(Oc3ccc(NC(=O)c4c5c(cn(-c6ccc(F)cc6)c4=O)CCO5)cc3F)c2cc1OCCN1CCOCC1 [Example 175, N-(3-Fluoro-4-((7-methoxy-6-(2-morpholinoethoxy)quinolin-4-yl)oxy)phenyl)-5-(4-fluorophenyl)-6-oxo-2,3,5,6-tetrahydrofuro[3,2-c]pyridine-7-carboxamide] | – | –
18 | 6 | 0.83 | O=C(Nc1ccc(Oc2ccnc3ccc(OCCN4CCOCC4)cc23)c(F)c1)c1c2c(cn(-c3ccc(F)cc3)c1=O)CCO2 [Example 177, N-(3-Fluoro-4-((6-(2-morpholinoethoxy)quinolin-4-yl)oxy)phenyl)-5-(4-fluorophenyl)-6-oxo-2,3,5,6-tetrahydrofuro[3,2-c]pyridine-7-carboxamide] | – | –
19 | 25 | 0.45 | O=C(Nc1ccc(Oc2ccnc3ccc(OCCCN4CCOCC4)cc23)c(F)c1)c1c2c(cn(-c3ccc(F)cc3)c1=O)CCO2 [Example 178, N-(3-Fluoro-4-((6-(3-morpholinopropoxy)quinolin-4-yl)oxy)phenyl)-5-(4-fluorophenyl)-6-oxo-2,3,5,6-tetrahydrofuro[3,2-c]pyridine-7-carboxamide] | – | –
20 | 3 | 0.47 | COc1cc2nccc(Oc3ccc(NC(=O)c4c5c(cn(-c6ccc(F)cc6)c4=O)CCO5)cc3F)c2cc1N [Example 179, N-(4-((6-Amino-7-methoxyquinolin-4-yl)oxy)-3-fluorophenyl)-5-(4-fluorophenyl)-6-oxo-2,3,5,6-tetrahydrofuro[3,2-c]pyridine-7-carboxamide] | – | –
21 | 3 | 7.52 | COc1cc2nccc(Oc3ccc(NC(=O)c4c5c(cn(-c6ccc(F)cc6)c4=O)CCO5)cc3F)c2cc1NCCCN1CCOCC1 [Example 186, N-(3-Fluoro-4-((7-methoxy-6-((3-morpholinopropyl)amino)quinolin-4-yl)oxy)phenyl)-5-(4-fluorophenyl)-6-oxo-2,3,5,6-tetrahydrofuro[3,2-c]pyridine-7-carboxamide] | – | –
